# Calls of active or inactive are those of the source.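 Rule for the calls: active = compounds giving half or more protection of infected cells from virus-caused growth loss, again on retest; inactive = the rest.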 Where a SMILES comes first, the peptide text is derived from it. [ ]: non-standard residue; d: D form. The star is where a group is joined. Ac5c = NC1(C(=O)O)CCCC1; Boc = CC(C)(C)OC(=O)*; tBu = CC(C)(C)*
# Test system: CEM cells HIV-1 protection, formazan growth assay
# Assay: NCI AIDS Antiviral Assay
# Settings: for IC50: measured here: growth of uninfected CEM cells
# Outline: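 CEM (human) cells, HIV-1 infected vs uninfected, 5-point dosing, formazan growth read-out. Retest threshold 50% protection.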
SMILES,EC50 [µM],IC50 [µM],outcome
CC(SSc1ccc(C(C)(C)C)cc1)c1ccccc1 (stereo not given),> 200,8.51,–
C/C(Cl)=N\OC(=O)Nc1ccccc1C(F)(F)F,> 200,33.1,–
COc1ccc(-n2c(C)nc3ccc(NC4OC(CO)C(O)C(O)C4O)cc3c2=O)cc1 (stereo not given),> 200,> 200,–
CCCN(CCCC(NC(C)=O)C(=O)NCc1ccccc1)C(=O)N(C)N=O (stereo not given),> 174,> 174,–
C=C1c2c(C)coc2C(=O)c2c(O)cc(OC)c(C)c21,–,–,inactive
C[N+](C)(C)CC(=O)N/N=C/c1oc(-c2c(O)ccc3ccccc23)c(-c2c(O)ccc3ccccc23)c1[N+](=O)[O-],> 45.7,24.5,–
O=S(=O)(O)C(=Nc1cccc(Cc2ccccc2)c1)Nc1cccc(Cc2ccccc2)c1,> 200,14.8,–
CC(=O)Oc1c(C(C)C)cc2c(c1OC(C)=O)C[C@@]1(C)OC(=O)CC(C)(C)C1(OC(C)=O)C=C2 (stereo not given in full),–,–,inactive
CCNC(=S)NNC(=O)C12CC3CC(CC(C3)C1)C2,> 200,> 200,–
CC1CCC2(CC1)CC(=O)N(N1CCOCC1)C(=O)C2,> 200,> 200,–
c1c[nH]c(-c2ccc(-c3ccc[nH]3)c3nsnc23)c1,> 200,> 200,–
C[C@]12Cc3conc3C(O)=C1CC[C@@H]1C2CC[C@@]2(C)C1CC[C@@H]2O (stereo not given in full),> 204,25.7,–
COc1cc2c(cc1OC)C1c3ccccc3CCCN1CC2 (stereo not given),> 200,123,–
Nc1ccc(C(=O)NN2C(=O)C(Cl)C2c2ccccc2O)cc1 (stereo not given),> 200,29.5,–
CCC1C(C#N)=C(O)NC(O)=C1C#N,> 1290,813,–
C[n+]1c(-c2ccc(/C=N\Nc3nnc(S)n3/N=C/c3ccc(-c4cn5ccccc5[n+]4C)cc3)cc2)cn2ccccc21,66.1,67.6,–
COC(=O)CC(NC(=O)OCc1ccccc1)C(C(=O)OCc1ccccc1)C(C)(OC)OC (stereo not given),> 50.1,20.4,–
C/C(O)=C/c1nc2ccccc2[nH]1,> 1450,1260,–
NC1=NC2(O)c3ccccc3C(=O)C2(O)N1 (stereo not given),> 45.7,28.8,–
SCCN1CCCN(CCS)CCC1,> 200,135,–
Cc1ccc(-c2cc(=O)c3cc(C)c(C)c(C(=O)O)c3o2)cc1N,–,–,inactive
Cc1nc(C(=Nc2ccc(Br)cc2)Nn2cnnc2)no1,> 200,–,–

SMILES,EC50 [µM],IC50 [µM],outcome
Cn1ccc(C(=O)NCCCCCNC(=O)c2ccn(C)c(=O)c2O)c(O)c1=O,> 200,> 200,–
CC(C)(CNC(=O)/C(Cl)=C(/Cl)C(=O)O)CNC(=O)/C(Cl)=C(/Cl)C(=O)O,> 200,17,–
COC(=O)CCCC=C(c1cc(C)c(OC)c(Br)c1)c1cc(C)c(OC)c(Br)c1,> 200,39.8,–
O=[N+]([O-])c1ccccc1Oc1ccccc1,55,87.1,–
CCN(CC)CCNC(=O)C(O)(c1ccccc1)c1ccccc1,> 200,> 200,–
CN(C)CCC(=O)N1CCc2c([nH]c3ccccc23)C1c1cccnc1 (stereo not given),> 372,> 372,–
CC1OC(O[C@H]2C3C=CO[C@@H](OC4OC(CO)C(O)C(O)C4O)C3[C@@]3(COC(=O)/C=C/c4ccc(O)cc4)O[C@@H]23)C(O)C(O)C1O (stereo not given in full),> 200,> 200,–
CC(N)CNCCCNCCNCCCNCO (stereo not given),> 100,> 100,–
O=C1N(Cl)C2C(N1Cl)N(Cl)C(=O)N2Cl (stereo not given),> 200,> 200,–
CCOc1ccccc1NC(=O)C(C#N)C1=C(Cl)C(=O)c2ccccc2C1=O (stereo not given),–,–,inactive
COc1c2c(c(OC)c3c1C(=O)c1ccccc1C3=O)C(=O)CCC2,> 8.13,> 8.13,–
NC1CSc2ccccc2NC1=O (stereo not given),> 407,> 407,–
COc1cc(C[N+]23CC[N+](Cc4cc(OC)cc(OC)c4)(CC2)C3)cc(OC)c1,> 525,214,–
COC(=O)/C=C1\C(CO[Si](C)(C)C(C)(C)C)OC(n2cc(C)c(=O)n(C)c2=O)C1O[Si](C)(C)C(C)(C)C (stereo not given),> 200,20.9,–
O=C(NCc1ccc(O)cc1O)c1ccccc1O,> 200,138,–
O=C(Nc1ccc(/C=C/c2ccc(NC(=O)c3cc(S(=O)(=O)O)ccc3O)cc2S(=O)(=O)O)c(S(=O)(=O)O)c1)c1cc(S(=O)(=O)O)ccc1O,93.3,> 200,–
CN(/N=C/c1ccc(C(=O)O)cc1)C1=NCCCCN1,> 200,> 200,–
O=C1COC(c2ccccc2O)=NN1Cc1ccccc1,> 49,> 49,–
O=c1c2ccc(Cl)cc2nc2n1OCC2,> 132,> 132,–
Cc1ccc(NC(=O)C(=O)C(C#N)c2ccccc2C)cc1C (stereo not given),> 23.4,> 23.4,–
N=c1c2ccccc2nnn1-c1ccccc1[N+](=O)[O-],–,–,inactive
Cc1cn(C2CC(N=[N+]=[N-])C(COP(=O)(OCC(=O)C(C)(C)C)OCC(=O)C(C)(C)C)O2)c(=O)[nH]c1=O (stereo not given),0.0011,2,–

SMILES,EC50 [µM],IC50 [µM],outcome
COc1cc(/C=C/C(=N\NC(=O)c2ccccc2)c2sc(Nc3ccc(Cl)c(Cl)c3)nc2C)ccc1O,> 46.8,38.9,–
COc1ccc(Cl)cc1NC(=O)c1ccco1,> 200,> 200,–
COc1ccc(C(=O)/C=C/c2ccc(OCC(=O)O)cc2)cc1,> 200,69.2,–
CC1=CC(=O)N(n2c(-c3ccccc3)n[nH]c2=O)C1=O,> 200,> 200,–
CC(=O)OC1CC[C@]2(C)C3CC[C@@]4(C)C(CCC4[C@H](C)CCCC(C)C)[C@@H]3CCC2(Br)C1 (stereo not given in full),–,–,inactive
Cc1c2ccccc2c(C)c2c3c(ccc12)C(=O)C=CC3=O,–,–,inactive
CC1(CO)COc2ccccc2C1=O (stereo not given),> 200,> 200,–
O=S(=O)(O)c1cc(N=Nc2ccc(O)c3ncccc23)ccc1CCc1ccc(N=Nc2ccc(O)c3ncccc23)cc1S(=O)(=O)O,6.31,42.7,–
O=C(CC(=O)c1cccc2ccccc12)C(=O)Nc1ccc(Cl)cc1,–,–,inactive
c1ccc2c(c1)c(N1CCCCC1)cc1nc3c(cc(N4CCCCC4)c4ccccc43)nc12,> 100,> 100,–
CSC(=N/N=C(\C)c1ccc(S(=O)(=O)N(C)c2ccccc2)cc1)SC,> 200,14.8,–
CCCC(=O)NC(NC1CCCCC1)(C(=O)OCC)C(F)(F)F (stereo not given),191,> 200,–
c1ccc(N=C(Nc2ccccc2)N2CCCC2)cc1,> 200,174,–
O=C1C(=O)c2ccccc2C(O)=C1CC=C(Cl)Cl,> 126,0.955,–
Cc1nc(N)c(N2CCN(S(=O)(=O)N(Cc3ccccc3)Cc3ccccc3)CC2)c(=O)[nH]1,> 195,120,–
CN(C)C[C@H]1CC[C@@H](CN(C)C)C1=O,–,–,inactive
CC(OC(C)(C)C)C(NC(=O)C(CCCCNC(=O)OC(C)(C)C)NC(=O)C(Cc1c[nH]c2ccccc12)NC(=O)C(N)Cc1ccccc1)C(=O)NC(Cc1ccccc1)C(=O)NC1(C(=O)O)CCCC1 (stereo not given) (H-FWK(Boc)T(tBu)F[Ac5c]-OH; configuration not given here),97.7,> 100,–
NN1C(=O)c2cccc3cccc(c23)C1=O,> 100,49,–
Cc1nc2sccn2c1C(=O)NN,> 1260,912,–
CC(C)(C)c1ccc(-n2c3nc(=O)n(-c4ccccc4C(F)(F)F)c(=O)c-3cc3ccccc32)cc1,> 200,15.8,–
CCCCC=C(c1cc(Cl)c(OC)c(C(=O)OC)c1)c1cc(Cl)c(OC)c(C(=O)OC)c1,> 5.62,> 5.62,–
Cc1cc(C2(O)C=C(C(C)(C)C)C(=O)C(C(C)(C)C)=C2)c(C)cc1C1(O)C=C(C(C)(C)C)C(=O)C(C(C)(C)C)=C1,> 151,> 151,–

SMILES,EC50 [µM],IC50 [µM],outcome
N#Cc1cc2c(cc1C#N)/C(=N\c1cccc(N)n1)N=C2Nc1cccc(N)n1,> 200,4.07,–
CCOC(=O)N1CCc2cc(OC)c(OC)cc2/C1=C\c1ccc(OC)c(OC)c1,–,–,inactive
[N-]=[N+]=Nc1ccc(CNc2cc(=O)[nH]c(=O)[nH]2)cc1,> 200,> 200,–
CC1=C(N2CC2)C(=O)c2nc3n(c2C1=O)CCC3OC(=O)CCl (stereo not given),> 200,0.692,–
CCCCCCN1CCc2c(C)c(C#N)c3nc4ccccc4n3c21,> 100,17.8,–
c1csc(-c2cc(-c3ccsc3)cs2)c1,> 200,> 200,–
COc1ccc(/C=N/NC(=S)Nc2ccccc2)cc1,> 200,> 200,–
O=C1CN(c2ccccc2)C(=O)C1C(=O)Nc1ccc(Cl)c(Cl)c1 (stereo not given),> 3.98,3.89,–
O=[As](O)(O)c1ccc(F)cc1,> 200,> 200,–
COc1cc2c(cc1OC)C1Cc3sccc3CN1CC2 (stereo not given),–,–,inactive
C=CCC1(O)CC(n2ccc(=O)[nH]c2=O)OC1CO[Si](C)(C)C(C)(C)C (stereo not given),> 200,> 100,–
c1ccc(COc2ncccc2C2SCCCS2)cc1,> 200,> 200,–
CC(=O)O[C@H]1CC2CCCC2C2C(=O)OC(=O)C21 (stereo not given in full),–,–,active
Cn1c(=O)c2[nH]c(/N=N\n3ccc4ccccc43)nc2n(C)c1=O,> 200,191,–
CSc1nc(NC2OCC(OC(C)=O)C(OC(C)=O)C2OC(C)=O)c2c(n1)OCC2=O (stereo not given),–,–,inactive
CN(C)CCCNc1ccc2c(=O)n(CCN(C)C)c(=O)n3c4ccccc4c(=O)c1c23,> 0.2,0.0776,–
OCC12C3C4C5C3C1C5C42 (stereo not given),> 200,> 200,–
O=NN1CCN=C1c1ccc([N+](=O)[O-])cc1,> 112,33.9,–
COC(=O)/C(=N\O)C(C(=O)C=C(C)C)C(=O)C(=O)Nc1ccccc1C (stereo not given),> 692,> 692,–
COc1ccc(/C(=N/O)C(c2ccc(OC)cc2)C2C(=O)Oc3ccccc32)cc1 (stereo not given),> 17.8,> 17.8,–
N#CCCn1[nH]c(=O)c(Cl)c(Cl)c1=O,> 1070,5.62,–

# Reference: PubChem BioAssay AID179 (DTP/NCI, 2004)
